Test results published in patent publication US20250236614A1, “BICYCLIC TETRAHYDROAZEPINE DERIVATIVES” (Hoffmann-La Roche Inc., priority 2022, published 2025).
Where two headings read alike, the source gives them in different places.

Assays:
[1] = target: T1, hDGKalpha(1-735)-N-His (DGKA) (Homo sapiens, UniProt P23743); experiment: In vitro DGK inhibition assay (ADP-Glo, in house), DGK alpha; format: biochemical; details: isomer A; 4 nM DGK α, 25 μM ATP, 125 μM DLG in liposomes, 1 hour reaction; read-out: DGKalpha ADP Glo assay IC50
T1 construct: hDGKalpha(1-735)-N-His; His (N)
T1 sequence (P23743 whole entry): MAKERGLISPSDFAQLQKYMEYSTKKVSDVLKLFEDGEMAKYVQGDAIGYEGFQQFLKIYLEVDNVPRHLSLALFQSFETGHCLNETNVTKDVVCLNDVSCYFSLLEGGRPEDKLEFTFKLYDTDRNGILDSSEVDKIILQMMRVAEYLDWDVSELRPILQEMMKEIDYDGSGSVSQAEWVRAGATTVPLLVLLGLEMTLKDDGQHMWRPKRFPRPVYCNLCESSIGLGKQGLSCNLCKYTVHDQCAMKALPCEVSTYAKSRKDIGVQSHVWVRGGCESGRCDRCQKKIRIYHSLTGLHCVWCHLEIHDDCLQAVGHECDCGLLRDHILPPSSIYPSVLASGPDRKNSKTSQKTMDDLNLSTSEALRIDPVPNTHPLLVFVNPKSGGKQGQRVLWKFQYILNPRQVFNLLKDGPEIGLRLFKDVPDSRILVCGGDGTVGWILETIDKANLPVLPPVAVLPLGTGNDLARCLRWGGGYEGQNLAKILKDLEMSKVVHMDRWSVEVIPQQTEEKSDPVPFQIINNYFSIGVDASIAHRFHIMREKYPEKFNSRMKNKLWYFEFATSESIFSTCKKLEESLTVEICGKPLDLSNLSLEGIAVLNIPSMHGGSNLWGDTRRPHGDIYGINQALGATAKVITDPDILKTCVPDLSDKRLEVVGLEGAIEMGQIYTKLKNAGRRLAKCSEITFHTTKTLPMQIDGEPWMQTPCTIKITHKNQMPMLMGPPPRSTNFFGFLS
Method: DGK α and ζ kinase use ATP to phosphorylate the substrate 1,2-dilauroyl-sn-glycerol (DLG, incorporated in the liposomes). ATP is converted to ADP as a result of this enzymatic reaction.
After the kinase reaction, an ATP-depletion reagent is added to terminate the kinase reaction and deplete any remaining ATP, leaving only ADP. Second, a detection reagent is added to simultaneously convert ADP to ATP and allow the newly synthesized ATP to be converted to light using a coupled luciferase/luciferin reaction.
Full length DGKA and Z were expressed in Sf21 insect cells by infecting the cells with the baculovirus stock at MOI of 2. Purification of both enzymes was performed as previously described by Takahashi et al., PeerJ, 2018 (Takahashi, D.; Sakane, F. Expression and purification of human diacylglycerolkinase alpha from baculovirus-infected insect cells for structural studies. PeerJ2018, 6, No. e5449).
A concentrated liposome solution was prepared in assay buffer without DTT and BSA: 2 mM of DLG in 21 mM of total liposome (2 mM DLG/8 mM PS/11 mM PC). The reaction mixtures contain the assay buffer with a final DLG concentration of 125 μM ATP concentrations of 25 μM (for DGKA assay) or 50 μM (for DGKZ assay). The reactions were started by addition of DGK α and ζ kinases at 4 nM and 2 nM final concentrations, respectively. After 1 hour reaction, the amount of ADP formed was detected with the ADP-Glo kinase assay (Promega) according to the manufacturer instructions. Compounds were added in 11I-points dose response, starting at 10 mM, 1:3 dilutions, with a final DMSO concentration of […]. The multidrop combi was used as a liquid handler and luminescence was read with 0.5 s by the envision reader (PE).

primary human T-cells = experiment: T-cell proliferation assay (CellTiter-Glo); format: cell-based; details: isomer A; for EC50: CD3 antibody-stimulated T-cells, CellTiter-Glo after 5 days, read-out: Tcell Proliferation CD3 EC50; for Emax: read-out: Emax proliferation (% activation)
Method: Expanded primary human T-cells are thawed and cultured in RPMI 1640 (Gibco, #61870-010)+5% human serum (HS, Sigma, #H3667)+1 mM Sodium Pyruvate (Gibco, #11360-039)+50 μM 2-mercaptoethanol (Gibco, #31350-010) and 1× Pen-Strep (Life Technologies, #15140122) medium at density of 2 Mio/ml for 3 hours in 5% CO2, 37° C. and 95% humidity. For coating of plates, PBS++ only or PBS++ with CD3 antibody (concentration depending on donor and determined by CD3 titrations) is added 100 μl/well to Poly-D Lysine coated 96-well plates. Plates are sealed and incubated at room temperature for 3 hours on a table-top rocking platform. After incubation, plates are washed once with PBS−− and filled with 40 μl/well culture medium only. Compounds are then added (see next section) to medium only plates. After 3 hours of culturing the T-cells, cells are filtered through a cell strainer (Miltenyi Biotech, #130-041-407), counted again and concentration is adjusted to 1.25 Mio/ml.
Cells are then seeded 80 μl/well to the 40 μl/well including dispensed compounds according to plate layout. By adding cells, compounds are further diluted 1:3, and resulting in 100k cells/120 μl/well. After 48 hours 40 μl of supernatant is collected carefully from the top while not disturbing the cells. Cells are assessed for proliferation 5 days later by measuring […] using CellTiterGlo (Promega).
Compounds were added in a 5 or 6 pt dose response with the Tecan D300e Digital Dispenser, all conditions 3 times more concentrated than the end-concentration, since cells are added afterwards (80 μl cells to 40 μl prepared medium with treatment). The DR was starting at 20 μM or 10 μM final top concentration and a dilution factor of 3.333. The positive control was the reference compound A1 that was added in a dose response as well, additionally to 3 wells of only 20 μM representing the positive stimulator control. All wells were normalized with DMSO to a final concentration of 0.6% (0.2% end-concentration).
After 5 days, for detection of ATP which is directly proportional to the number of cells present per well, the CellTiter-Glo® 2.0 Reagent is used. After visual control for toxicity or precipitations of the tested compounds, the plates are equilibrated to room temperature for 45 minutes. CellTiter-Glo® 2.0 Reagent is equilibrated to room temperature as well. After equilibration, an equal amount of CellTiter-Glo reagent is added to the cells (80 μl/well) with an electronic multichannel pipette. Plates are placed on a rocking platform for 15 minutes at room temperature. After incubation, the bottom of the plates is sealed with backing tape. Luminescence is measured with PHERAstar FSX (interval time 0.5 sec, gain 3000, focal height 15 mm) and exported as CSV file for analysis in Genedata screener.
CD3 and PBS plates were analysed separately in Genedata Screener using Roche Normalization PCT_POS_CTRL with DMSO set as Neutral Control and 20 μM of the reference compound A1 set as Stimulator Control/100%.
For CD3 conditions EC50 and Emax of the fitted sigmoidal curve were reported. If no curve could be fitted, the EC50 was reported as blank field and the Emax was based on individual data points. […] Compounds which activate unstimulated cells (see IL2 measurements) or compounds which negatively affected viability were flagged.

[2] = Homo sapiens, T-cell, 120 h, CD3 condition, 5 days, 20 μM reference compound A1 = 100%, DMSO neutral control

IC50 [1] | Compound | EC50 (primary human T-cells) | Emax proliferation (% activation) (primary human T-cells; CD3 condition, 5 days, 20 μM reference compound A1 = 100%, DMSO neutral control) | EC50 (primary human T-cells; Homo sapiens, T-cell, 120 h) | Emax (primary human T-cells; [2])
2.37 µM | CC(C)(C#N)c1nnc(-c2cc3c(cc2F)C(F)(F)CC(N)C(=O)N3Cc2ccc(-n3cc(C(F)(F)F)cn3)cc2)o1 (racemic) [Example 33, 2-[5-[(3S)-3-amino-5,5,7-trifluoro-2-oxo-1-[[4-[4-(trifluoromethyl)pyrazol-1-yl]phenyl]methyl]-3,4-dihydro-1-benzazepin-8-yl]-1,3,4-oxadiazol-2-yl]-2-methyl-propanenitrile and 2-[5-[(3R)-3-amino-5,5,7-trifluoro-2-oxo-1-[[4-[4-(trifluoromethyl)pyrazol-1-yl]phenyl]methyl]-3,4-dihydro-1-benzazepin-8-yl]-1,3,4-oxadiazol-2-yl]-2-methyl-propanenitrile] | – | – | 98.8 nM | 128%
9.25 µM | CCN1CC(c2nnc(-c3cc4c(cc3F)C(F)(F)C[C@@H](N)C(=O)N4Cc3ccc(OC(F)(F)F)cc3)o2)CC(F)(F)C1 (single isomer, unassigned) [Example 13] | – | – | 77.7 nM | 79%
> 62.5 µM | N[C@@H]1CC(F)(F)c2cc(F)c(-c3nnc(N4CCCC4)o3)cc2N(Cc2ccc(-c3noc(C(F)(F)F)n3)cc2)C1=O (single isomer, unassigned) [Example 14] | – | – | 593 nM | 149%

Further lines, the compound ahead of its results:

Compound | IC50 [1] | EC50 (primary human T-cells) | Emax proliferation (% activation) (primary human T-cells; CD3 condition, 5 days, 20 μM reference compound A1 = 100%, DMSO neutral control) | EC50 (primary human T-cells; Homo sapiens, T-cell, 120 h) | Emax (primary human T-cells; [2])
2-methyl-2-[5-[(3S)-3-amino-5,5,7-trifluoro-2-oxo-1-[[4-(trifluoromethoxy)phenyl]methyl]-3,4-dihydro-1-benzazepin-8-yl]-1,3,4-oxadiazol-2-yl]propanenitrile and 2-methyl-2-[5-[(3R)-3-amino-5,5,7-trifluoro-2-oxo-1-[[4-(trifluoromethoxy)phenyl]methyl]-3,4-dihydro-1-benzazepin-8-yl]-1,3,4-oxadiazol-2-yl]propanenitrile [Example 2] | 1.4 µM | 315 nM | 161 % activation | – | –
CC(C)(c1nnc(-c2cc3c(cc2F)C(F)(F)CC(N)C(=O)N3Cc2ccc(Oc3ccccc3)cc2)o1)S(C)(=O)=O (racemic) [Example 5, (3S)-3-amino-5,5,7-trifluoro-8-[5-(1-methyl-1-methylsulfonyl-ethyl)-1,3,4-oxadiazol-2-yl]-1-[(4-phenoxyphenyl)methyl]-3,4-dihydro-1-benzazepin-2-one and (3R)-3-amino-5,5,7-trifluoro-8-[5-(1-methyl-1-methylsulfonyl-ethyl)-1,3,4-oxadiazol-2-yl]-1-[(4-phenoxyphenyl)methyl]-3,4-dihydro-1-benzazepin-2-one] | 16.9 µM | – | – | 684 nM | 249%
COC(F)(c1nnc(-c2cc3c(cc2F)C(F)(F)C[C@H](N)C(=O)N3Cc2ccc(OC(F)(F)F)cc2)o1)C(F)(F)F (single isomer, unassigned) [Example 4] | 4.37 µM | – | – | 140 nM | 112%
CC(C)(C)c1nnc(-c2cc3c(cc2F)C(F)(F)C[C@@H](N)C(=O)N3Cc2ccc(OC3CCCC3)cc2)o1 (single isomer, unassigned) [Example 7] | 9.64 µM | – | – | 127 nM | 110%
CC(C)(c1nnc(-c2cc3c(cc2F)C(F)(F)C[C@@H](N)C(=O)N3Cc2ccc(-c3ccc(C(F)(F)F)cn3)cc2)o1)S(C)(=O)=O (single isomer, unassigned) [Example 8] | 5.44 µM | – | – | 185 nM | 86%
COc1ccc(-c2ccc(CN3C(=O)[C@H](N)CC(F)(F)c4cc(F)c(-c5nnc(C(C)(C)C#N)o5)cc43)cc2)cc1 (single isomer, unassigned) [Example 9] | 9.92 µM | – | – | 267 nM | 114%
COc1ccc(-c2ccc(CN3C(=O)[C@H](N)CC(F)(F)c4cc(F)c(-c5nnc(C(C)(C)S(C)(=O)=O)o5)cc43)cc2)cc1 (single isomer, unassigned) [Example 10] | 16.2 µM | – | – | 377 nM | 76%
CC(C)(C#N)c1nnc(-c2cc3c(cc2F)C(F)(F)C[C@@H](N)C(=O)N3Cc2ccc(-c3ccc(C(F)(F)F)cn3)cc2)o1 (single isomer, unassigned) [Example 12] | 24.6 µM | – | – | 409 nM | 152%
